Patent US20130095094A1, “ASSAY” (University of Leicester, priority 2010, published 2013)

Assays:
[1] = system: HEK-293 cells transfected with CD14 alone; experiment: NF-κB reporter in HEK-293 cells transfected with CD14 and reporter alone (no corresponding TLR); type: cell-based, human; settings: data not shown
[2] = biological target: T1, human TLR-2 (Homo sapiens, UniProt O60603); experiment: TLR-transfection NF-κB reporter (pELAM) assay, HEK-293 cells transfected with TLR-2 and CD14; type: cell-based
T1 construct: host or cells: HEK-293
Description: (§1) For transfection assays, human embryonic kidney (HEK)-293 cells were plated in 96 well plates at 10^4 cells per well and transfected after 24 h using Genejuice (Novagen) according to manufacturer's instructions. The following amounts of constructs were added to each well: 30 ng of human TLR-2, TLR-5 or TLR-4 (co-expressing MD-2), 30 ng of pCD14 and 10 ng of NF-κB-sensitive luciferase-reporter construct (pELAM). Cells were grown for 3 days post transfection prior to 18 h challenge. Promoter expression was calculated as fold induction relative to cells cultured in medium alone +/−SD. Endogenous expression of TLRs in HEK-293 has been ruled out by RT-PCR by the inventor.
(§2) Log-transformed PAMP concentrations were then plotted against fold-induction of NF-κB reporter to generate a standard curve. […] For example, results presented as 200 ng/g BLP-equivalent means that each gramme of food contains TLR-2-stimulants with a capacity to stimulate TLR-2-signalling equal to that of 200 ng Pam3CSK4. Food extracts were measured at 1:10 dilution in DMEM/10% FCS in duplicate. If signals exceeded the range of the standard curve, further dilutions were prepared and reassayed.
Samples were then maintained at 100 ° C. for 1 -120 min, before cooling, diluting 1:10 in DMEM/10% FCS and applying to HEK-293 cells transfected with TLR-2 or TLR-4/MD2 for measurement of capacity to induce TLR-signalling as described above. […] Samples were then neutralised by addition of NaOH solution and applied to TLR-transfected HEK-293 cells as described above.
As a negative control, parallel samples were supplemented with an equal molarity of NaCl to account for increased salinity of samples due to acid/base neutralisation. […] Control samples were also heat-treated for 10 minutes.
TLR-stimulants were quantified in both whole heat-treated saliva (100° C. for 10 minutes), intended to reflect total bacteria-associated TLR-stimulants, and in saliva diluted 1:10 in PBS and filter-sterilised (0.22 μm, Acrodisc), intended to reflect soluble TLR-stimulants in human saliva. A recently developed bioassay based upon the measurement of NF-κB-dependent reporter activation in TLR-deficient HEK-293 cells transfected with human TLR2, TLR4/MD2 or TLR5, and callibrated with TLR2-, TLR4- or TLR5-stimulating standards (Erridge et al., 2010, Public Library of Science One 5, e9125), was used to quantify TLR-stimulants in saliva samples. Briefly, cells were plated in 96-well plates at 2×10^4 cells per well and transfected after 24 h using Genejuice (Novagen). Amounts of construct per well were 30 ng of human TLR2, TLR4 (co-expressing MD-2) or TLR5 (Invivogen), 30 ng of CD14 and 10 ng of firefly luciferase-reporter construct driven by the NF-KB dependent E-selectin promoter (pELAM). 3 days after transfection, cells were challenged in triplicate with heat-treated or sterile-filtered saliva samples diluted 1:100 in DMEM/1%FCS. […] After 18 h, NF-κB-dependent reporter expression was measured using Promega Dual-Glo reagent. Fold induction of reporter was calculated relative to cells cultured in medium alone and a standard curve was prepared by plotting fold NF-κB induction vs concentration for each standard PAMP. […] For example, results presented as 200 ng/ml lipopeptide-equivalents indicate that 1 ml of saliva contains TLR2-stimulants with a capacity to stimulate TLR2-signalling equal to that of 200 ng Pam3CSK4. The coefficient of variance of the assay averaged ˜20%. […]

[3] = system: human monocytes; experiment: Challenge of human monocytes with food extracts, TNF-α (L929 bioassay) / IL-6 (ELISA) secretion; type: cell-based; settings: 25 μg/ml OxPAPC, filter-sterilised food extracts, 4 h
Description: Venous blood was collected by venepuncture from consenting healthy human subjects according to the guidelines laid down in the Declaration of Helsinki and all procedures involving human subjects were approved by the University of Leicester College of Medicine Research Ethics Committee. Written informed consent was obtained from all subjects. Peripheral blood mononuclear cells (PBMC) were prepared by density gradient centrifugation at 800 g for 25 min using Histopaque-1077 (Sigma). Recovered cells were washed twice in PBS solution, resuspended in RPMI/10% fetal calf serum (FCS) (Sigma) and plated in 96-well plates at 4×10^5 cells per well. Monocytes were prepared from PBMC by plastic adherence (1 h at 37° C.), followed by gentle washing to remove non-adherent cells. Remaining monocytes were then challenged by adding a 1:20 dilution of each sterile-filtered food extract in tissue culture medium. After incubation at 37° C. for 4 h, supernatants were removed for assay of TNF-α content by L929-cell bioassay as described in Delahooke et al. (1995, Infect. Immun. 63, 840-846), or IL-6 levels were measured by ELISA (R&D) after 18 h.

[4] = system: HEK-293 cells transfected with CD14 alone; settings: 10 μg/ml, positive control; cited from earlier work
[5] = biological target: T2, human TLR-5 (Homo sapiens, UniProt O60602); experiment: TLR-transfection NF-κB reporter (pELAM) assay, HEK-293 cells transfected with TLR-5 and CD14; type: cell-based
T2 construct: host or cells: HEK-293
Description: as §1, §2
TLR-stimulants were quantified in both whole heat-treated saliva (100° C. for 10 minutes), intended to reflect total bacteria-associated TLR-stimulants, and in saliva diluted 1:10 in PBS and filter-sterilised (0.22 μm, Acrodisc), intended to reflect soluble TLR-stimulants in human saliva. A recently developed bioassay based upon the measurement of NF-κB-dependent reporter activation in TLR-deficient HEK-293 cells transfected with human TLR2, TLR4/MD2 or TLR5, and callibrated with TLR2-, TLR4- or TLR5-stimulating standards (Erridge et al., 2010, Public Library of Science One 5, e9125), was used to quantify TLR-stimulants in saliva samples. […] After 18 h, NF-κB-dependent reporter expression was measured using Promega Dual-Glo reagent. Fold induction of reporter was calculated relative to cells cultured in medium alone and a standard curve was prepared by plotting fold NF-κB induction vs concentration for each standard PAMP. […]

[6] = pH 1.0 with HCl 2 h or 3 h, then neutralised

T1 sequence (O60603 21-784): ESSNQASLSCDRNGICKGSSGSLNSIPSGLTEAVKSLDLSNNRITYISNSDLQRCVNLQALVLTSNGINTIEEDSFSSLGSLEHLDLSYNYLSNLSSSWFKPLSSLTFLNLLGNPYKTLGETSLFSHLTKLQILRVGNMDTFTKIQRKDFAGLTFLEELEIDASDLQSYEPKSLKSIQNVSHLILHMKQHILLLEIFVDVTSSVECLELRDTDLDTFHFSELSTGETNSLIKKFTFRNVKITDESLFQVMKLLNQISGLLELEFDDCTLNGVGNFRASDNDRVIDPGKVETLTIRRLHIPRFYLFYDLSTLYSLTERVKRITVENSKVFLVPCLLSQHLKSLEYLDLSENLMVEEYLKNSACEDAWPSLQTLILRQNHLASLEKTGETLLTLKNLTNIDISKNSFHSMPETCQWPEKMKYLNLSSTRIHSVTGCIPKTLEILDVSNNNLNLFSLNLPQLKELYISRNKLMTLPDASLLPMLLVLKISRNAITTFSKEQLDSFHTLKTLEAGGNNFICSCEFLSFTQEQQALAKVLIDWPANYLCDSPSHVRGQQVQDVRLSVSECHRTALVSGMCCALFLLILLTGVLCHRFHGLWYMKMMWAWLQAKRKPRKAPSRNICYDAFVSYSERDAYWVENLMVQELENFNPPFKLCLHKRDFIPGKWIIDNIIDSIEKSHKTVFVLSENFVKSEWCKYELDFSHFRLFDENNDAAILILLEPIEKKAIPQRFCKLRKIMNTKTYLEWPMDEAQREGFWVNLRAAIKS
T2 sequence (O60602 21-858): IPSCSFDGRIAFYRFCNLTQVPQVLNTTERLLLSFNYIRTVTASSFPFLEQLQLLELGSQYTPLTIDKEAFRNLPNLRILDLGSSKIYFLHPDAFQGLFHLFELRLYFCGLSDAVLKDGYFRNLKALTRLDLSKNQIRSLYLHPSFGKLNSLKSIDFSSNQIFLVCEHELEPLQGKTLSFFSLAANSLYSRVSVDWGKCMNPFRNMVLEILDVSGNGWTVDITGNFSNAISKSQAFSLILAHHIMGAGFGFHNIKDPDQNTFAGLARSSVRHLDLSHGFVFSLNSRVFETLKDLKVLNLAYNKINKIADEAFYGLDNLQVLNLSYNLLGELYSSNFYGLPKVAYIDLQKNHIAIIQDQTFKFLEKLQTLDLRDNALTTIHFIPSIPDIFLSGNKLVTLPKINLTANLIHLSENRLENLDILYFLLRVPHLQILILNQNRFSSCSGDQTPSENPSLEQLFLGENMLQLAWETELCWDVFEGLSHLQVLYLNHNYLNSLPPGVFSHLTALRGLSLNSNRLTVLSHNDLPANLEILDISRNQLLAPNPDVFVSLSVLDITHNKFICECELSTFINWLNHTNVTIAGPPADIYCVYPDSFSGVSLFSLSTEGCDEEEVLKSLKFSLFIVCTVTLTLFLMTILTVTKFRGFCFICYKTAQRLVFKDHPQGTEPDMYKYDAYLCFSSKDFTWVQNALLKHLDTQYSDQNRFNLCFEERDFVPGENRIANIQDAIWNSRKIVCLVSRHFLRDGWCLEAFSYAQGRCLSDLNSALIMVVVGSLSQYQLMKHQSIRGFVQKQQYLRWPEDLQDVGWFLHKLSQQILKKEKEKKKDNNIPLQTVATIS

Pam3CSK4
Activation of HEK-293 cells transfected with CD14 alone, or with non-corresponding TLRs [1]: unable to activate
Biological activity (TLR-2 signalling) after heating ([2]; 100 ng/ml, 100° C. for up to 2 hours): not measurably reduced
Minimum concentration to which transfected cells were sensitive ([2]; TLR-2 transfected HEK-293): 0.1 ng/mL
Capacity to stimulate TLR-2 after low pH treatment [2, 6]: did not affect
Biological activity (TLR-2) after protease treatment ([2]; proteinase-K 37° C. 1 h): unaffected

oxidised palmitoyl-arachidonyl phosphocholine [OxPAPC]
TNF-α secretion in response to each stimulant-containing foodstuff in presence of OxPAPC [3]: completely abrogated
Inhibition of TLR2-dependent signalling induced by patient saliva samples ([2]; 25 μg/ml OxPAPC, filter-sterilised saliva 1:100, 18 h): significantly blocked

polyinosinic acid [PolyI:C]
NF-κB activation in HEK-293 cells [4]: stimulates NF-κB activation independently of TLR2, TLR4 or TLR5

B1: flagellin: S. typhimurium flagellin purchased from Invivogen, TLR5 standard (protein, UniProt P06179 2-495, looked up)
Flagellin: AQVINTNSLSLLTQNNLNKSQSALGTAIERLSSGLRINSAKDDAAGQAIANRFTANIKGLTQASRNANDGISIAQTTEGALNEINNNLQRVRELAVQSANSTNSQSDLDSIQAEITQRLNEIDRVSGQTQFNGVKVLAQDNTLTIQVGANDGETIDIDLKQINSQTLGLDTLNVQQKYKVSDTAATVTGYADTTIALDNSTFKASATGLGGTDQKIDGDLKFDDTTGKYYAKVTVTGGTGKDGYYEVSVDKTNGEVTLAGGATSPLTGGLPATATEDVKNVQVANADLTEAKAALTAAGVTGTASVVKMSYTDNNGKTIDGGLAVKVGDDYYSATQNKDGSISINTTKYTADDGTSKTALNKLGGADGKTEVVSIGGKTYAASKAEGHNFKAQPDLAEAAATTTENPLQKIDAALAQVDTLRSDLGAVQNRFNSAITNLGNTVNNLTSARSRIEDSDYATEVSNMSRAQILQQAGTSVLAQANQVPQNVLSLLR
Biological activity (TLR5 signalling) after heating ([5]; 100 ng/ml, 100° C., by 1 h): almost completely abolished
Biological activity (TLR5) after low pH treatment [5, 6]: increased
Bioactivity (TLR5) after protease treatment ([5]; proteinase-K 37° C. 1 h): abolished
Activation of HEK-293 cells transfected with CD14 alone, or with non-corresponding TLRs [1]: unable to activate
